# Tested on: CL145A (ATCC 55799)
# Assay: Antibiotic resistance profile, antibiotic discs on Mueller-Hinton agar
# Settings: 72 hours incubation
# Experimental: One glycerol stock vial of CL145A was equally distributed onto Mueller-Hinton Agar plates (100 μl per plate) and spread on the plate using a sterile cell spreader. Antibiotic discs were then placed onto the plates along with a blank sterile disc. Plates were incubated at 25° C. in the dark for 72 hours.
row,Compound,CL145A resistant or sensitive to the antibiotic (growth inhibited by the antibiotic disc)
1,CC1(C)S[C@@H]2[C@H](NC(=O)[C@H](N)c3ccccc3)C(=O)N2[C@H]1C(=O)O [Ampicillin],resistant
2,CO/N=C(\C(=O)N[C@@H]1C(=O)N2C(C(=O)O)=C(COC(N)=O)CS[C@H]12)c1ccco1 [Cefuroxime],resistant
3,O=C(N[C@H](CO)[C@H](O)c1ccc([N+](=O)[O-])cc1)C(Cl)Cl [Chloramphenicol],resistant
4,CC[C@H]1OC(=O)[C@H](C)[C@@H](O[C@H]2C[C@@](C)(OC)[C@@H](O)[C@H](C)O2)[C@H](C)[C@@H](O[C@@H]2O[C@H](C)C[C@H](N(C)C)[C@H]2O)[C@](C)(O)C[C@@H](C)C(=O)[C@H](C)[C@@H](O)[C@]1(C)O [Erythromycin],resistant
5,CCN1CCN(C(=O)N[C@@H](C(=O)N[C@@H]2C(=O)N3[C@@H]2SC(C)(C)[C@@H]3C(=O)O)c2ccccc2)C(=O)C1=O [Piperacillin],sensitive
6,[H]/N=C(/N)N[C@H]1[C@H](O)[C@@H](O)[C@H](O[C@@H]2O[C@@H](C)[C@](O)(C=O)[C@H]2O[C@@H]2O[C@@H](CO)[C@H](O)[C@@H](O)[C@@H]2NC)[C@@H](N/C(N)=N\[H])[C@@H]1O [Streptomycin],resistant
7,Gentamicin,sensitive
8,Penicillin,resistant

# Source: US9918479B2, “Control of phytopathogenic microorganisms with Pseudomonas sp. and substances and compositions derived therefrom” (priority 2012, dated 2018)
